Data as given in article PMC4868737, “BAY 1024767 blocks androgen receptor mutants found in castration-resistant prostate cancer patients” (Oncotarget, 2016).

Biological target: AR M895T (Homo sapiens, UniProt P10275, M895T/M896T)
Assay: cell-based
Settings: IC50 (antagonistic activity)

Sequence of AR M895T (P10275 whole entry M895T/M896T): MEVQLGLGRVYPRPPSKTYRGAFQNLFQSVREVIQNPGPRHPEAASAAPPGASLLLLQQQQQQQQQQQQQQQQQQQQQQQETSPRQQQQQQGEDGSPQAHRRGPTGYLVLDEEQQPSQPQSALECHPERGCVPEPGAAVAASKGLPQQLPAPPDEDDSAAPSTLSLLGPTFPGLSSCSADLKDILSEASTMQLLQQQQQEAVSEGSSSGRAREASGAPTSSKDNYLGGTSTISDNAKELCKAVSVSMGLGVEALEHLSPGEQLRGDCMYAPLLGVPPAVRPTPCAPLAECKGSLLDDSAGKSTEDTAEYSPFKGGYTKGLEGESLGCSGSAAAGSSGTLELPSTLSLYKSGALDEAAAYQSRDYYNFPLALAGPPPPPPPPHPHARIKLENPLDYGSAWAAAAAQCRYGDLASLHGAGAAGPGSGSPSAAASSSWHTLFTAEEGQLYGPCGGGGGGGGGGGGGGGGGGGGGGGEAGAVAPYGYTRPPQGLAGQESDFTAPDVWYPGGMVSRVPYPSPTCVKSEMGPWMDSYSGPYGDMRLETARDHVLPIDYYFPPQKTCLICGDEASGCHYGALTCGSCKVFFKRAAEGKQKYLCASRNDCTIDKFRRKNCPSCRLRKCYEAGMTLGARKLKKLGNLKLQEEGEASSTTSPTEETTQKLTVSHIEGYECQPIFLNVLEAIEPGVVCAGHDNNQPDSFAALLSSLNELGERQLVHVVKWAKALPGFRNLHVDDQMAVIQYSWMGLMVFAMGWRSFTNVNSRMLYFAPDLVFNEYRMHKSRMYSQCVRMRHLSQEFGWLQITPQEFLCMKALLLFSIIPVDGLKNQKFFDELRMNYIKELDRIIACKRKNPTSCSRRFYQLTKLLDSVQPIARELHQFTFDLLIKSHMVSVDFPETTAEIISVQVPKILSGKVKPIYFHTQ

CC(C)(O)COc1ccc(CN2C(=S)N(c3ccc(C#N)c(C(F)(F)F)c3)C(=O)C2(C)C)cn1 [BAY 1024767] gave an IC50 (R1881 1 nM) of 0.037 µM and an IC50 (R1881 10 nM) of 0.22 µM.
